Data published in ChEMBL document CHEMBL4342527, “Discovery of Novel Fungal Lanosterol 14α-Demethylase (CYP51)/Histone Deacetylase Dual Inhibitors to Treat Azole-Resistant Candidiasis” (J Med Chem, 2020).
Converted amounts (≈) assume the structure as drawn. The source made the active and inactive calls. The calls are words filed in the database; no cut-off is given here.

Experiments:
Candida albicans [1] = assay: Antifungal activity against azole-sensitive Candida albicans SC5314 after 48 hrs by spectrophotometry-based serial microdilution method; type: functional; conditions: Candida albicans, SC5314, 48 h; read-out: MIC80
Candida albicans [2] = assay: Antifungal activity against azole-resistant Candida albicans 0304103 after 48 hrs by spectrophotometry-based serial microdilution method; type: functional; conditions: Candida albicans, 0304103, 48 h
Candida albicans [3] = assay: Antifungal activity against azole-resistant Candida albicans 7781 after 48 hrs by spectrophotometry-based serial microdilution method; type: functional; conditions: Candida albicans, 7781, 48 h
Candida albicans [4] = assay: Antifungal activity against azole-resistant Candida albicans 4108 after 48 hrs by spectrophotometry-based serial microdilution method; type: functional; conditions: Candida albicans, 4108, 48 h
Candida tropicalis = assay: Antifungal activity against azole-resistant Candida tropicalis 5008 after 48 hrs by spectrophotometry-based serial microdilution method; type: functional; conditions: Candida tropicalis, 5008, 48 h
Cryptococcus neoformans = assay: Antifungal activity against azole-sensitive Cryptococcus neoformans H99 after 72 hrs by spectrophotometry-based serial microdilution method; type: functional, var grubii H99; conditions: Cryptococcus neoformans, var grubii H99 , 72 h; read-out: MIC80
[5] = target: T1, Lanosterol 14-alpha demethylase (Candida albicans (strain SC5314 / ATCC MYA-2876) (Yeast), UniProt P10613); assay: Inhibition of CYP51 in azole-resistant Candida albicans 0304103 assessed as unknown sterol 1 level at 0.5 ug/ml after 24 hrs by GC-MS analysis (reference value: 2.91%); set-up: scale not given: the % may be the effect or the level left
[6] = target: T1, Lanosterol 14-alpha demethylase; assay: Inhibition of CYP51 in azole-resistant Candida albicans 0304103 assessed as ergosterol content at 0.5 ug/ml after 24 hrs by GC-MS analysis (reference value: 75.21%); set-up: scale not given: the % may be the effect or the level left
[7] = target: T1, Lanosterol 14-alpha demethylase; assay: Inhibition of CYP51 in azole-resistant Candida albicans 0304103 assessed as unknown sterol 2 level at 0.5 ug/ml after 24 hrs by GC-MS analysis (reference value: 6.77%); set-up: scale not given: the % may be the effect or the level left
[8] = target: T1, Lanosterol 14-alpha demethylase; assay: Inhibition of CYP51 in azole-resistant Candida albicans 0304103 assessed as unknown sterol 3 level at 0.5 ug/ml after 24 hrs by GC-MS analysis (reference value: 4.78%); set-up: scale not given: the % may be the effect or the level left
[9] = target: T1, Lanosterol 14-alpha demethylase; assay: Inhibition of CYP51 in azole-resistant Candida albicans 0304103 assessed as unknown sterol 4 level at 0.5 ug/ml after 24 hrs by GC-MS analysis (reference value: 1.29%); set-up: scale not given: the % may be the effect or the level left
[10] = target: T1, Lanosterol 14-alpha demethylase; assay: Inhibition of CYP51 in azole-resistant Candida albicans 0304103 assessed as lanosterol level at 0.5 ug/ml after 24 hrs by GC-MS analysis (reference value: 4.15%); set-up: scale not given: the % may be the effect or the level left
[11] = target: T1, Lanosterol 14-alpha demethylase; assay: Inhibition of CYP51 in azole-resistant Candida albicans 0304103 assessed as unknown sterol 5 level at 0.5 ug/ml after 24 hrs by GC-MS analysis (reference value: 4.87%); set-up: scale not given: the % may be the effect or the level left
Histone deacetylase = assay: Inhibition of HDAC in HUVEC using Boc-Lys(Ac)-AMC as substrate preincubated for 12 hrs followed by substrate addition and measured after 4 hrs by fluorimetry; type: ADME, cell-based, Homo sapiens
[12] = target: T1, Lanosterol 14-alpha demethylase; assay: Inhibition of CYP51 in azole-resistant Candida albicans 0304103 assessed as reduction in ERG11 gene expression at 32 ug/ml after 16 hrs by SYBR Green-1 dye based RT-PCR analysis; set-up: species or system 304103
Candida albicans [13] = assay: Inhibition of HDAC in azole-resistant Candida albicans 0304103 assessed as reduction in CDR1 gene expression at 32 ug/ml after 16 hrs by SYBR Green-1 dye based RT-PCR analysis; conditions: 304103
Candida albicans [14] = assay: Inhibition of HDAC in azole-resistant Candida albicans 0304103 assessed as reduction in CDR2 gene expression at 32 ug/ml after 16 hrs by SYBR Green-1 dye based RT-PCR analysis; conditions: 304103
Candida albicans [15] = assay: Inhibition of HDAC in azole-resistant Candida albicans 0304103 assessed as reduction in MDR1 gene expression at 32 ug/ml after 16 hrs by SYBR Green-1 dye based RT-PCR analysis; conditions: 304103
Candida albicans [16] = assay: Antifungal activity against Candida albicans 0304103 assessed as effect on filamentation up to 32 ug/ml after 4 hrs by differential interference contrast microscopic analysis; type: functional, organism-based
Candida albicans [17] = assay: Inhibition of biofilm formation in azole resistant Candida albicans 0304103 at 64 ug/ml after 24 hrs by XTT assay relative to control; type: functional; conditions: Candida albicans, 0304103, 24 h
Candida albicans [18] = conditions: 0304103, 32 ug/ml
Description: Inhibition of HDAC in azole-resistant Candida albicans 0304103 assessed as decrease in rhodamine 6G efflux at 32 ug/ml after 16 hrs by fluorimetry

T1 sequence (P10613 whole entry): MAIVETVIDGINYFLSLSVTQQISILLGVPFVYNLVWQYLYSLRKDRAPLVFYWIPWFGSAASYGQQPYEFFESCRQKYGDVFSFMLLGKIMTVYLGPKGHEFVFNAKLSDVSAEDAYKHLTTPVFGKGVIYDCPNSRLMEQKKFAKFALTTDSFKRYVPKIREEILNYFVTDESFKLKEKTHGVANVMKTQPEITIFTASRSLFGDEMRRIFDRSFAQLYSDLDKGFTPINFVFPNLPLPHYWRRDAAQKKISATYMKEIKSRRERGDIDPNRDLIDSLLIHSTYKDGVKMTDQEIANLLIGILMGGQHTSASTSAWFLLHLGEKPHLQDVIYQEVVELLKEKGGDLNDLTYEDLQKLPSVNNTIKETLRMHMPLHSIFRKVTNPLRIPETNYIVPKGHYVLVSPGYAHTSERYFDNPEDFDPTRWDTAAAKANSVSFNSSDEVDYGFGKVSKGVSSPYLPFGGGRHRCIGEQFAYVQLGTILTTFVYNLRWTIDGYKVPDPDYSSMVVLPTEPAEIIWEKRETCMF

Question: Which results are given for `OC(Cn1cncn1)(Cn1cncn1)c1ccc(F)cc1F` [FLUCONAZOLE]?
Answer: MIC80 (Candida albicans [1]): 0.5 µg/mL (≈ 1.63 µM); MIC80 (Candida albicans [2]): > 64 µg/mL; MIC80 (Candida albicans [3]): > 64 µg/mL; MIC80 (Candida albicans [4]): > 64 µg/mL; MIC80 (Candida tropicalis): > 64 µg/mL; MIC80 (Cryptococcus neoformans): 2 µg/mL (≈ 6.53 µM); Activity [5]: 3.06%; Activity [6]: 74.97%; Activity [7]: 7.5%; Activity [8]: 4.7%; Activity [9]: 1.17%; Activity [10]: 3.94%; Activity [11]: 4.66%; IC50 (Histone deacetylase): > 40 µM; inhibition (INH) [12]: Not Active; inhibition (Candida albicans [13]): inactive; inhibition (Candida albicans [14]): inactive; inhibition (Candida albicans [15]): inactive; Activity (Candida albicans [16]): inactive; inhibition at 64 µg/mL (Candida albicans [17]): 22.9%; inhibition (Candida albicans [18]): inactive
